Drawing on US7704995B2 (Exelixis, Inc., priority 2003, dated 2010), this text covers IC50 for 31 compounds.

As usually defined, the IC50 is the point on the concentration scale where inhibition reaches its midpoint.

The first experiment concerns the target T1, Chk1 (Homo sapiens, UniProt O14757).
T1 construct: purchased Upstate Biotechnology
T1 sequence (O14757 1-476): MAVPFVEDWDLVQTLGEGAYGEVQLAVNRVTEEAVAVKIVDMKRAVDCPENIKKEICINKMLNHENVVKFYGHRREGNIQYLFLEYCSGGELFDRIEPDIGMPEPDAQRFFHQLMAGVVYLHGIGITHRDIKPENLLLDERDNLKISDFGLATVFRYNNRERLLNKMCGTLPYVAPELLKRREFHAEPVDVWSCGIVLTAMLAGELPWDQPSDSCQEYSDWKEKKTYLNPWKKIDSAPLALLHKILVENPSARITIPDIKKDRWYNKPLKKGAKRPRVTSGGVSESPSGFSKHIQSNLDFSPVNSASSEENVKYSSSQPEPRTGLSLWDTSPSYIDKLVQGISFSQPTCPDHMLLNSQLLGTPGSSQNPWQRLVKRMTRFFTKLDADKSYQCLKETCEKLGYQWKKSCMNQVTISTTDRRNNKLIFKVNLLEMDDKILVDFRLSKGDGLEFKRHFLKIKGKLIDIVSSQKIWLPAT
Kind of experiment: Chk1 kinase assay: incorporation of γ-33P ATP into immobilized myelin basic protein. In kind it is biochemical. The conditions noted are these: Table 11, Chk1 only; class symbols A-D; read-out: Chk1 IC50. In short, it runs like this: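 Radiometric filter-free format: Chk1 10 nM, 10 μM ATP; Chk2 20 nM, 30 μM ATP; γ-33P ATP tracer; immobilized MBP substrate; Hepes pH 7.6, 10 mM MgCl2, 1 mM DTT; 1 h RT; 1% DMSO. Scintillation counting of washed plates. IC50/Ki from curve fit.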
Take `Nc1ncc(-c2cccc(C(=O)NC3CCCC3)c2)nc1C(=O)N[C@H]1CCCNC1` [Example 929, 3-amino-6-{3-[(cyclopentylamino)carbonyl]phenyl}-N-[(3S)-piperidin-3-yl]pyrazine-2-carboxamide]: the half-inhibitory concentration (IC50) fell in the range of 50 to 1000 nM. Take `Cc1nnsc1C(=O)NCc1cccc(-c2cnc(N)c(C(=O)N[C@H]3CCCNC3)n2)c1` [Example 991, 3-amino-6-[3-({[(4-methyl-1,2,3-thiadiazol-5-yl)carbonyl]amino}methyl)phenyl]-N-[(3S)-piperidin-3-yl]pyrazine-2-carboxamide]: the IC50 is < 50 nM. Same read-out and setting: for `Nc1ncc(-c2cccc(C(=O)NCc3cc(F)cc(Br)c3)c2)nc1C(=O)N[C@H]1CCCNC1` [Example 1032, 3-amino-6-[3-({[(3-bromo-5-fluorophenyl)methyl]amino}carbonyl)phenyl]-N-[(3S)-piperidin-3-yl]pyrazine-2-carboxamide] the value was < 50 nM. Turning to `Nc1ncc(-c2cccc(C(=O)NCc3ccc(Cl)cc3Cl)c2)nc1C(=O)N[C@H]1CCNC1` [Example 825, 3-amino-6-[3-({[(2,4-dichlorophenyl)methyl]amino}carbonyl)phenyl]-N-[(3S)-pyrrolidin-3-yl]pyrazine-2-carboxamide], the IC50 is < 50 nM.

`Nc1ncc(-c2cccc(NC(=O)Cc3ccccc3F)c2)nc1C(=O)N[C@H]1CCCNC1` [Example 898, 3-amino-6-(3-{[(2-fluorophenyl)acetyl]amino}phenyl)-N-[(3S)-piperidin-3-yl]pyrazine-2-carboxamide]: the half-maximal inhibitory concentration (IC50) was < 50 nM.

With `Nc1ncc(-c2cccc(NC(=O)Cc3ccc(Cl)cc3)c2)nc1C(=O)N[C@H]1CCCNC1` [Example 885, 3-amino-6-(3-{[(4-chlorophenyl)acetyl]amino}phenyl)-N-[(3S)-piperidin-3-yl]pyrazine-2-carboxamide], the IC50 is < 50 nM. Take `Nc1ncc(-c2cccc(CNC(=O)c3ccc(-c4ccccc4)cc3)c2)nc1C(=O)N[C@H]1CCCNC1` [Example 933, 3-amino-6-(3-{[(biphenyl-4-ylcarbonyl)amino]methyl}phenyl)-N-[(3S)-piperidin-3-yl]pyrazine-2-carboxamide]: the IC50 is < 50 nM.

For `Nc1ncc(-c2cccc(C(=O)NCc3c(F)ccc(Cl)c3F)c2)nc1C(=O)N[C@H]1CCCCNC1` [Example 1019, 3-amino-N-[(3S)-azepan-3-yl]-6-[3-({[(3-chloro-2,6-difluorophenyl)methyl]amino}carbonyl)phenyl]pyrazine-2-carboxamide], the IC50 is < 50 nM.

The experiment is the same for the next values; noted with them: Table 11; Chk1 only; read-out: Chk1 IC50.
Consider `CNC(=O)c1nc(-c2cccc(CNC3CCc4c(-c5ccccc5)cccc43)c2)cnc1N` (stereo not shown) [Example 493, 3-amino-N-methyl-6-(3-{[(4-phenyl-2,3-dihydro-1H-inden-1-yl)amino]methyl}phenyl)pyrazine-2-carboxamide], for which the IC50 is < 50 nM. `CC(C)(C)OC(=O)NC1CCN(C(=O)c2nc(-c3cccc(C(=O)NCc4ccccc4)c3)cnc2N)CC1` [Example 617, 1,1-dimethylethyl (1-{[3-amino-6-(3-{[(phenylmethyl)amino]carbonyl}phenyl)pyrazin-2-yl]carbonyl}piperidin-4-yl)carbamate]: the IC50 is ≥ 10000 nM.

As to `CC(C)(C)OC(=O)N1CC[C@H](NC(=O)c2nc(-c3cccc(C(=O)N4CCc5ccccc5C4)c3)cnc2N)C1` [Example 711, 1,1-dimethylethyl (3S)-3-[({3-amino-6-[3-(3,4-dihydroisoquinolin-2(1H)-ylcarbonyl)phenyl]pyrazin-2-yl}carbonyl)amino]pyrrolidine-1-carboxylate], the IC50 was ≥ 10000 nM. With `Nc1ncc(-c2cccc(CN[C@H]3CCc4ccccc43)c2)nc1C(=O)NCCN1CCCC1` [Example 540, 3-amino-6-(3-{[(1S)-2,3-dihydro-1H-inden-1-ylamino]methyl}phenyl)-N-(2-pyrrolidin-1-ylethyl)pyrazine-2-carboxamide], the IC50 was in the range of 50 to 1000 nM. `CNC(=O)c1nc(-c2cccc(CNC3CCc4cc(-c5ccco5)ccc43)c2)cnc1N` (stereo not shown) [Example 472, 3-amino-6-(3-{[(5-furan-2-yl-2,3-dihydro-1H-inden-1-yl)amino]methyl}phenyl)-N-methylpyrazine-2-carboxamide]: the IC50 was < 50 nM.

On to `C/C(=N\N(C)C)c1nc(-c2cccc(C(=O)NCc3ccccc3)c2)cnc1N` [Example 629, 3-{5-amino-6-[(1E)-N,N-dimethylethanehydrazonoyl]pyrazin-2-yl}-N-(phenylmethyl)benzamide], for which the 50% inhibitory concentration (IC50) was in the range of 50 to 1000 nM.

`CNC(=O)c1nc(-c2ccc3c(c2)C(N[C@H]2CCc4ccccc42)CC3)cnc1N` (stereo partly drawn) [Example 526, 3-amino-6-{3-[(1S)-2,3-dihydro-1H-inden-1-ylamino]-2,3-dihydro-1H-inden-5-yl}-N-methylpyrazine-2-carboxamide]: the IC50 is < 50 nM. For `CNC(=O)c1nc(-c2cc(C(=O)O)cc(C(=O)OC)c2)cnc1N` [Example 789, 3-{5-amino-6-[(methylamino)carbonyl]pyrazin-2-yl}-5-[(methyloxy)carbonyl]benzoic acid], the IC50 fell in the range of 1000 to 10000 nM. Consider `CNC(=O)c1nc(-c2cccc(CN[C@@H](C)c3ccccc3)c2)cnc1N` [Example 427, 3-amino-N-methyl-6-[3-({[(1S)-1-phenylethyl]amino}methyl)phenyl]pyrazine-2-carboxamide], for which the half-maximal inhibitory concentration (IC50) lay within 50 to 1000 nM.

With `Nc1ncc(-c2cccc(C(=O)NCc3ccccc3)c2)nc1C(=O)c1cccc(F)c1` [Example 560, 3-{5-amino-6-[(3-fluorophenyl)carbonyl]pyrazin-2-yl}-N-(phenylmethyl)benzamide], the 50% inhibitory concentration (IC50) was ≥ 10000 nM.

The same experiment, now with this note: read-out: Chk1 IC50.
For the compound `CNC(=O)c1nc(-c2cccc(NC(=O)c3ccco3)c2)cnc1N` [Example 124, 3-amino-6-{3-[(furan-2-ylcarbonyl)amino]phenyl}-N-methylpyrazine-2-carboxamide], the IC50 was in the range of 50 to 1000 nM.

For the compound `CNC(=O)c1nc(-c2cccc(C(=O)NCc3ccc(OC(F)(F)F)cc3)c2)cnc1N` [Example 227, 3-amino-N-methyl-6-(3-{[({4-[(trifluoromethyl)oxy]phenyl}methyl)amino]carbonyl}phenyl)pyrazine-2-carboxamide], the IC50 was in the range of 50 to 1000 nM. Turning to `CNC(=O)c1nc(-c2cccc(C(=O)NCc3ccc4c(c3)CCO4)c2)cnc1N` [Example 207, 3-amino-6-(3-{[(2,3-dihydro-1-benzofuran-5-ylmethyl)amino]carbonyl}phenyl)-N-methylpyrazine-2-carboxamide], the IC50 fell in the range of 50 to 1000 nM. In the case of `CNC(=O)c1nc(-c2cccc(OCCN3CCN(CCO)CC3)c2)cnc1N` [Example 193, 3-amino-6-[3-({2-[4-(2-hydroxyethyl)piperazin-1-yl]ethyl}oxy)phenyl]-N-methylpyrazine-2-carboxamide], the IC50 was 50 to 1000 nM. `CNC(=O)c1nc(-c2noc(-c3ccco3)n2)cnc1N` [Example 75, 3-amino-6-(5-furan-2-yl-1,2,4-oxadiazol-3-yl)-N-methylpyrazine-2-carboxamide]: the 50% inhibitory concentration (IC50) was ≥ 10000 nM. Regarding `Nc1ncc(-c2ccccc2)nc1C(=O)N[C@H]1CCc2ccccc21` [Example 5, 3-amino-N-[(1S)-2,3-dihydro-1H-inden-1-yl]-6-phenylpyrazine-2-carboxamide], the IC50 was ≥ 10000 nM. Turning to `CNC(=O)c1nc(-c2cccc(C(=O)NCc3ccccc3C(F)(F)F)c2)cnc1N` [Example 109, 3-amino-N-methyl-6-{3-[({[2-(trifluoromethyl)phenyl]methyl}amino)carbonyl]phenyl}pyrazine-2-carboxamide], the IC50 was 50 to 1000 nM. On the same count and under the same terms, with `CNC(=O)c1nc(-c2cccc(C(=O)NCC3COc4ccccc4O3)c2)cnc1N` (stereo not shown) [Example 202, 3-amino-6-(3-{[(2,3-dihydro-1,4-benzodioxin-2-ylmethyl)amino]carbonyl}phenyl)-N-methylpyrazine-2-carboxamide] the figure was 50 to 1000 nM; with `CNC(=O)c1nc(-c2cccc(C(=O)NCc3ccoc3)c2)cnc1N` [Example 201, 3-amino-6-(3-{[(furan-3-ylmethyl)amino]carbonyl}phenyl)-N-methylpyrazine-2-carboxamide], 50 to 1000 nM. Turning to `CNC(=O)c1nc(-c2cccc(CN[C@H]3CCc4ccccc43)c2)cnc1N` [Example 418, 3-amino-6-(3-{[(1S)-2,3-dihydro-1H-inden-1-ylamino]methyl}phenyl)-N-methylpyrazine-2-carboxamide], the IC50 is < 50 nM.

Take `CNC(=O)c1nc(-c2cccc(CNC(=O)c3ccc4c(c3)OCO4)c2)cnc1N` [Example 352, 3-amino-6-(3-{[(1,3-benzodioxol-5-ylcarbonyl)amino]methyl}phenyl)-N-methylpyrazine-2-carboxamide]: the IC50 lay in the range of 50 to 1000 nM. `CNC(=O)c1nc(-c2cccc(NC(=O)c3ccc(OC)cc3)c2)cnc1N` [Example 106, 3-amino-N-methyl-6-[3-({[4-(methyloxy)phenyl]carbonyl}amino)phenyl]pyrazine-2-carboxamide]: the concentration for half-maximal inhibition (IC50) is 50 to 1000 nM. With `CNC(=O)c1nc(-c2cccc(C(=O)N[C@H]3CCC[C@@H]3OCc3ccccc3)c2)cnc1N` [Example 164, 3-amino-N-methyl-6-{3-[({(1S,2S)-2-[(phenylmethyl)oxy]cyclopentyl}amino)carbonyl]phenyl}pyrazine-2-carboxamide], the IC50 lay within 50 to 1000 nM.
